From article PMC3266904, “Biochemical Discrimination between Selenium and Sulfur 2: Mechanistic Investigation of the Selenium Specificity of Human Selenocysteine Lyase” (PLoS ONE, 2012)

Target: T1, human selenocysteine lyase (hSCL) (Homo sapiens, UniProt Q96I15)
T1 construct: gene SCLY
T1 sequence (Q96I15 8-445): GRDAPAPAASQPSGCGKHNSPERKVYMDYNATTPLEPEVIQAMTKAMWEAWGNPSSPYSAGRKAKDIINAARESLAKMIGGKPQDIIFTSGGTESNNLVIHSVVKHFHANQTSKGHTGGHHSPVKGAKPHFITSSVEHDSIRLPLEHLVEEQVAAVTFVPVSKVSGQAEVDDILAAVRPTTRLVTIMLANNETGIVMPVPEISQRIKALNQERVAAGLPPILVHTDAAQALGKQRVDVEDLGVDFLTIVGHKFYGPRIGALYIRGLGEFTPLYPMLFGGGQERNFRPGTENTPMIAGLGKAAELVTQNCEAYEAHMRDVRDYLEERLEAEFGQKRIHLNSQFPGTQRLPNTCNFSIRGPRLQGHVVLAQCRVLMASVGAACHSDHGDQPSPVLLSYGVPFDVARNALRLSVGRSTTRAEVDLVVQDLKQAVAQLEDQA
Test: UV/Vis spectrum of as-isolated protein
Format: binding
Conditions: 120 mM Tris pH 8.5, 2 mM TCEP; covalent internal aldimine

Q: How did the “UV/Vis spectrum of as-isolated protein” value turn out when `Cc1ncc(COP(=O)(O)O)c(C=O)c1O` [PLP] was run?
A: the Shiff base linking the PLP cofactor to the protein exists mainly in the protonated
